This is an account of results in patent US9416130B2, “4-(8-methoxy-1-((1-methoxypropan-2-yl)-2-(tetrahydro-2H-pyran-4-yl)-1 H-imidazo[4,5-C]quinolin-7-yl)-3,5-dimethylisoxazole and its use as bromodomain inhibitor” (GlaxoSmithKline LLC, priority 2011, dated 2016).

Read-outs that look alike come from different tables or passages of the source.

The subject of assay [1] is LPS induced IL-6 secretion from whole blood. Briefly: LPS induced IL-6 secretion from whole blood. The note with it: LPS 200 ng/ml, 24 hours, IL-6 immunoassay. In kind it is cell-based. Here is the method: Measurement of LPS Induced IL-6 Secretion from Whole Blood
Activation of monocytic cells by agonists of toll-like receptors such as bacterial lipopolysaccharide (LPS) results in production of key inflammatory mediators including IL-6. Such pathways are widely considered to be central to the pathophysiology of a range of auto-immune and inflammatory disorders.
Compounds to be tested are diluted to give a range of appropriate concentrations of which 1 μl of the diluted stocks is added to a 96 well plate. Following addition of whole blood (130 ul) the plates are incubated at 37 degrees (5% CO2) for 30 min before the addition of 10 μl of 2.8 ug/ml LPS, diluted in complete RPMI 1640 (final concentration=200 ng/ml), to give a total volume of 140 μl per well. After further incubation for 24 hours at 37 degrees, 140 μl of PBS are added to each well. The plates are sealed, shaken for 10 minutes and then centrifuged (2500 rpm×10 min). 100 μl of the supernatant are removed and IL-6 levels assayed by immunoassay (typically by MesoScale Discovery technology) either immediately or following storage at −20 degrees. Concentration response curves for each compound was generated from the data and an IC50 value was calculated

Assay [2] has as its system Multiple myeloma cell lines. Briefly: Oncology cell growth assay (384-well, CellTiter-Glo). Format: cell-based, Human. Here is the method: (§1) Oncology Cell Growth Assay
(§2) Human cell lines (n=80 comprising cell lines described in Table 2 below) were cultured in RPMI-1640 containing 10% fetal bovine serum, 1000 viable cells per well were plated in 384-well black flat bottom polystyrene plates (Greiner #781086) in 48 μl of culture media. All plates were placed at 5% CO2, 37° C. overnight. The following day one plate was harvested with CellTiter-Glo (CTG, Promega #G7573) for a time equal to 0 (T0) measurement and compound (20 point titration from 14.7 uM to 7 pM) was added to the remaining plates. The final concentration of DMSO in all wells was 0.15%. Cells were incubated for 72 hours or the indicated time and each plate was developed with CellTiter-Glo reagent using a volume equivalent to the cell culture volume in the wells. Plates were shaken for approximately 2 minutes and chemiluminescent signal was read on the Analyst GT (Molecular Devices) or EnVision Plate Reader (Perkin Elmer).
(§3) Results are expressed as a percent of the T0 and plotted against the compound concentration. The T0 value was normalized to 100% and represents the number of cells at time of compound addition and the concentration response data were fit with a 4 parameter curve fit using XLfit software (model 205). The concentration that inhibited cell growth by 50% (gIC50) is the midpoint of the ‘growth window’ (between the T0 and DMSO control). The Ymin−T0 value is determined by subtracting the T0 value (100%) from the Ymin value (%) determined from the fit of the concentration response curve. Values from the wells with no cells were subtracted from all samples for background correction.
(Cellular ATP, detected with luciferase, serves as a proxy for viable cell number.)

The test system of assay [3] is Neuroblastoma cell lines. The description is as above. In kind it is cell-based. The note with it: Homo sapiens. Here is the method: as §1, §2, §3
For assay [4], the system named is Esophageal cell lines. The description is as above. Format: cell-based. The note with it: Homo sapiens. Here is the method: as §1, §2, §3
For assay [5], the system named is Cervical cancer cell lines. The description is as above. Format: cell-based. The note with it: Homo sapiens; range over 4 cervical cancer cell lines; read-out: gIC50. Here is the method:
as §1, §2, §3

Assay [6] has as its system Small cell lung cancer (SCLC) cell lines. Described as above. Format: cell-based. The note with it: Homo sapiens. How it is done: as §1, §2, §3
Assay [7] has as its system NUT-midline carcinoma cell lines. The description is as above. In kind it is cell-based. The note with it: Homo sapiens; range over 2 NUT-midline carcinoma cell lines; read-out: gIC50. How it is done: as §1, §2, §3
The test system of assay [8] is LPS-induced serum IL-6. The assay is described as follows: In vivo mouse model to demonstrate modulation of pro-inflammatory response (i.v. LPS). Set-up: species or system Male CD1 mice. The note with it: for reduced maximum (Cmax) IL-6 levels / reduced total exposures (AUC) of IL-6: 1 h before i.v. LPS 100 μg/kg, mouse. Here is the method: Male CD1 mice (25-30 g, n=4 per group) received a single i.v. bolus injection of LPS (100 μg/kg) via the tail vein 1 h after pre-treatment with a single oral administration of either vehicle (1% (w/v) methylcellulose in sterile water) or the test compound (3, 10 and 30 mg/kg). Serial blood samples were obtained from the tail vein by direct venepuncture at various time points up to 5 h post-LPS administration for analysis of IL-6 and the test compound concentrations by Meso Scale Discovery (MSD) analysis and LC-MS/MS respectively.

The subject of assay [9] is Acute promyelocytic leukemia cell line. Briefly: Oncology cell growth assay (analogous procedure, 96 well plates). The note with it: Homo sapiens, 1 acute promyelocytic leukemia line, read-out: gIC50. Format: cell-based. Here is the method: as §2, §3
(§4) The compound of Example 2 was also tested in accordance with an analogous procedure using 96 well plates along with appropriate modifications to volumes and concentrations that would be apparent to those skilled in the art.

The subject of assay [10] is Ovarian carcinoma cell line. The description is as above. In kind it is cell-based. The note with it: Homo sapiens, 1 ovarian carcinoma line, read-out: gIC50. How it is done:
as §2, §3, §4

The test system of assay [11] is Breast cancer (ductal) cell line. The assay is described as above. Format: cell-based. The note with it: Homo sapiens, 1 breast cancer (ductal) line, read-out: gIC50. How it is done: as §2, §3, §4
Assay [12] relates to Burkitt's lymphoma cell lines. The description is as above. Format: cell-based. The note with it: Homo sapiens, Burkitts lymphoma cell, range over 3 Burkitt's lymphoma lines, read-out: gIC50. Here is the method:
as §2, §3, §4

For assay [13], the system named is Cutaneous T cell lymphoma cell line. The assay is described as above. The note with it: Homo sapiens, 1 cutaneous T cell lymphoma line, read-out: gIC50. In kind it is cell-based. How it is done:
as §2, §3, §4

The test system of assay [14] is Chronic myeloid leukemia cell line. Described as above. In kind it is cell-based. The note with it: Homo sapiens, 1 chronic myeloid leukemia line, read-out: gIC50. Here is the method: as §2, §3, §4
Assay [15] has as its system Acute monocytic leukemia cell line. Described as above. Format: cell-based. The note with it: Homo sapiens, 1 acute monocytic leukemia line, read-out: gIC50. Here is the method: as §2, §3, §4
[16] abbreviates: positive control, maximal reduction observed, mouse LPS model.

As for `COC[C@@H](C)n1c(C2CCOCC2)nc2cnc3cc(-c4c(C)noc4C)c(OC)cc3c21` [Example 2, 4-(8-methoxy-1-((R)-1-methoxypropan-2-yl)-2-(tetrahydro-2H-pyran-4-yl)-1H-imidazo[4,5-c]quinolin-7-yl)-3,5-dimethylisoxazole], the IC50 was 100 to 1000 nM in assay [1]; 414 nM in [2] (Homo sapiens, median of 16 multiple myeloma cell lines, read-out: gIC50 (median)); no less than 1.1 nM in assay [2] (Homo sapiens, range over 16 multiple myeloma cell lines, 72 hours, read-out: gIC50); 1.1 to 2000 nM in [2] (range for 15 out of 16 multiple myeloma cell lines, read-out: gIC50); 193 nM in assay [3] (median of 12 neuroblastoma cell lines, read-out: gIC50 (median)); 25 to 435 nM in [3] (range over 12 neuroblastoma cell lines, read-out: gIC50). Moreover, the IC50 in assay [4] (median of 8 esophageal cell lines, read-out: gIC50 (median)) was 759 nM; in [4] (range over 8 esophageal cell lines, read-out: gIC50), 208 to 1540 nM; in assay [5] it was 266 to 847 nM; in assay [6] (median of 38 SCLC cell lines, read-out: gIC50 (median)), 538 nM; in [6] (range for 35 of the 38 SCLC cell lines, read-out: gIC50), 76 to 2500 nM; in [6] (range over 38 SCLC cell lines, 72 hours, read-out: gIC50) it was no less than 76 nM. Also, the IC50 is 59 to 66 nM in [7]; 141 nM in assay [9]; 707 nM in assay [10]; 537 nM in assay [11]; 181 to 807 nM in assay [12]; 162 nM in [13]. The IC50 in [14] was 776 nM; in assay [15] it was 123 nM. Further, the “reduced maximum (Cmax) IL-6 levels” value in assay [8] (3 mg/kg single oral) is on record as 46%; in assay [8] (10 mg/kg single oral), 79%; in [8] (30 mg/kg single oral), 73%. For the same molecule, the results for the “reduced total exposures (AUC) of IL-6” value in [8] (3 mg/kg single oral), in [8] (10 mg/kg single oral) and in assay [8] (30 mg/kg single oral) were 35%, 70% and 63%, respectively.

With `COCC(C)n1c(C2CCOCC2)nc2cnc3cc(-c4c(C)noc4C)c(OC)cc3c21` (centres unmarked) [Example 1, 4-(8-methoxy-1-(1-methoxypropan-2-yl)-2-(tetrahydro-2H-pyran-4-yl)-1H-imidazo[4,5-c]quinolin-7-yl)-3,5-dimethylisoxazole], the IC50 in assay [1] is 100 to 1000 nM.

As for `C[C@@H]1C[C@H]2[C@@H]3CCC4=CC(=O)C=C[C@]4(C)[C@@]3(F)[C@@H](O)C[C@]2(C)[C@@]1(O)C(=O)CO` [dexamethasone, reference compound], in assay [8] (setting [16]), the “reduction in IL-6 AUC” value is given as 70% and the “reduction in IL-6 Cmax” value is listed as 73%.
